From the supplement of paper PMC8617591

Tests used:
[1] = test system: Mycobacterium tuberculosis Erdman (autoluminescent); assay: total FIC50 (Loewe) at 50% inhibition, three-drug combination (log2); higher = more antagonistic
Protocol: (§1)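 DiaMOND equipotent three-drug combination dose responses (10 doses, 1.5- or 2-fold spacing, centred on IC90) against autoluminescent M. tuberculosis Erdman in 8 in vitro models. Read-out is OD600, or luminescence for the intracellular and dormancy models, normalised to untreated wells. Hill-fit Einf, AUC25 and GRinf are potency metrics; FIC50 and FIC90 are total Loewe fractional inhibitory concentrations as log2 (negative = synergy).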

[2] = test system: Mycobacterium tuberculosis Erdman (autoluminescent); assay: total FIC90 (Loewe) at 90% inhibition, three-drug combination (log2); higher = more antagonistic
Protocol: as §1

[3] = test system: Mycobacterium tuberculosis Erdman (autoluminescent); assay: AUC25, normalised area under dose response up to IC25 (three-drug combination) (fraction (0-1)); higher = more potent at low dose
Protocol: as §1

[4] = test system: Mycobacterium tuberculosis Erdman (autoluminescent); assay: GRinf, maximum normalised growth rate inhibition (three-drug combination) (unitless (-1 to 1)); higher = less effect (negative = killing)
Protocol: as §1

[5] = test system: Mycobacterium tuberculosis Erdman (autoluminescent); assay: Einf, fitted maximum growth inhibition of three-drug combination (fraction); higher = stronger maximal inhibition
Protocol: as §1

[6] = in vitro model: acidic pH 5.7, time point: constant (~7 days, model-specific)
[7] = in vitro model: acidic pH 5.7, time point: terminal (~4-5 doublings, model-specific)
[8] = in vitro model: butyrate, time point: constant (~7 days, model-specific)
[9] = in vitro model: butyrate, time point: terminal (~4-5 doublings, model-specific)
[10] = in vitro model: cholesterol 0.05 mM, time point: constant (~7 days, model-specific)
[11] = in vitro model: cholesterol 0.05 mM, time point: terminal (~4-5 doublings, model-specific)
[12] = in vitro model: cholesterol-high 0.2 mM, time point: constant (~7 days, model-specific)
[13] = in vitro model: cholesterol-high 0.2 mM, time point: terminal (~4-5 doublings, model-specific)
[14] = in vitro model: dormancy (butyrate + nitrate, low O2), time point: constant (~7 days, model-specific)
[15] = in vitro model: dormancy (butyrate + nitrate, low O2), time point: terminal (~4-5 doublings, model-specific)
[16] = in vitro model: standard 7H9 glycerol, time point: constant = terminal
[17] = in vitro model: valerate, time point: constant (~7 days, model-specific)
[18] = in vitro model: valerate, time point: terminal (~4-5 doublings, model-specific)
[19] = in vitro model: intracellular J774, time point: constant = terminal

## CC[C@@H](CO)NCCN[C@@H](CC)CO [ethambutol] + COc1c(N2C[C@@H]3CCCN[C@@H]3C2)c(F)cc2c(=O)c(C(=O)O)cn(C3CC3)c12 [moxifloxacin] + O=[N+]([O-])c1cn2c(n1)OC[C@@H](OCc1ccc(OC(F)(F)F)cc1)C2 [pretomanid]
[1]; [6]
  total FIC50: 0.434
[1]; [7]
  total FIC50: 1.03
[1]; [8]
  total FIC50: 0.478
[1]; [9]
  total FIC50: 0.42
[1]; [10]
  total FIC50: 0.987
[1]; [11]
  total FIC50: 0.0988
[1]; [12]
  total FIC50: 0.925
[1]; [13]
  total FIC50: 1.12
[1]; [14]
  total FIC50: 0.37
[1]; [15]
  total FIC50: -0.414
[1]; [16]
  total FIC50: 0.294
[1]; [17]
  total FIC50: -0.131
[1]; [18]
  total FIC50: 0.26
[2]; [7]
  total FIC90: 0.811
[2]; [9]
  total FIC90: 0.0737
[2]; [11]
  total FIC90: 1.38
[2]; [13]
  total FIC90: 1.04
[2]; [15]
  total FIC90: 0.703
[2]; [19]
  total FIC90: -1.12
[2]; [16]
  total FIC90: 0.564
[2]; [18]
  total FIC90: -0.798
[3]; [6]
  AUC25: 0.124
[3]; [7]
  AUC25: 0.0788
[3]; [8]
  AUC25: 0.0791
[3]; [9]
  AUC25: 0.0604
[3]; [10]
  AUC25: 0.106
[3]; [11]
  AUC25: 0.116
[3]; [12]
  AUC25: 0.0657
[3]; [13]
  AUC25: 0.0467
[3]; [14]
  AUC25: 0.116
[3]; [15]
  AUC25: 0.126
[3]; [16]
  AUC25: 0.0753
[3]; [17]
  AUC25: 0.0943
[3]; [18]
  AUC25: 0.0516
[4]; [6]
  GRinf: -0.388
[4]; [7]
  GRinf: -0.335
[4]; [8]
  GRinf: -0.0315
[4]; [9]
  GRinf: -0.039
[4]; [10]
  GRinf: -0.247
[4]; [11]
  GRinf: -0.457
[4]; [12]
  GRinf: -0.187
[4]; [13]
  GRinf: -0.609
[4]; [14]
  GRinf: 0.349
[4]; [15]
  GRinf: -0.335
[4]; [19]
  GRinf: -0.573
[4]; [16]
  GRinf: -0.251
[4]; [17]
  GRinf: -0.00882
[4]; [18]
  GRinf: 0.0316
[5]; [6]
  Einf: 0.718
[5]; [7]
  Einf: 0.939
[5]; [8]
  Einf: 0.94
[5]; [9]
  Einf: 0.968
[5]; [10]
  Einf: 0.669
[5]; [11]
  Einf: 0.927
[5]; [12]
  Einf: 0.89
[5]; [13]
  Einf: 1
[5]; [14]
  Einf: 0.835
[5]; [15]
  Einf: 0.986
[5]; [19]
  Einf: 0.999
[5]; [16]
  Einf: 0.974
[5]; [17]
  Einf: 0.862
[5]; [18]
  Einf: 0.929

## CC[C@@H](CO)NCCN[C@@H](CC)CO [ethambutol] + NC(=O)c1cnccn1 [pyrazinamide] + CO[C@H]1/C=C/O[C@@]2(C)Oc3c(C)c(O)c4c(O)c(c(/C=N/N5CCN(C6CCCC6)CC5)c(O)c4c3C2=O)NC(=O)/C(C)=C\C=C\[C@H](C)[C@H](O)[C@@H](C)[C@@H](O)[C@@H](C)[C@H](OC(C)=O)[C@@H]1C [rifapentine]
[1]; [6]
  total FIC50: -0.399
[1]; [7]
  total FIC50: -0.0475
[1]; [8]
  total FIC50: 0.221
[1]; [9]
  total FIC50: 0.309
[1]; [11]
  total FIC50: 1.58
[1]; [12]
  total FIC50: 1.2
[1]; [13]
  total FIC50: 1.46
[1]; [14]
  total FIC50: -0.0129
[1]; [15]
  total FIC50: 0.284
[1]; [16]
  total FIC50: 0.158
[1]; [17]
  total FIC50: 0.105
[1]; [18]
  total FIC50: 0.338
[2]; [9]
  total FIC90: -0.154
[2]; [13]
  total FIC90: 1.21
[2]; [15]
  total FIC90: 1.88
[2]; [19]
  total FIC90: -1.88
[2]; [18]
  total FIC90: -0.692
[3]; [6]
  AUC25: 0.0954
[3]; [7]
  AUC25: 0.0652
[3]; [8]
  AUC25: 0.0808
[3]; [9]
  AUC25: 0.0667
[3]; [10]
  AUC25: 0.116
[3]; [11]
  AUC25: 0.11
[3]; [12]
  AUC25: 0.0322
[3]; [13]
  AUC25: 0.0395
[3]; [14]
  AUC25: 0.0922
[3]; [15]
  AUC25: 0.116
[3]; [16]
  AUC25: 0.0407
[3]; [17]
  AUC25: 0.0408
[3]; [18]
  AUC25: 0.0268
[4]; [6]
  GRinf: -0.165
[4]; [7]
  GRinf: -0.191
[4]; [8]
  GRinf: 0.0172
[4]; [9]
  GRinf: 0.025
[4]; [10]
  GRinf: -0.834
[4]; [11]
  GRinf: -0.315
[4]; [12]
  GRinf: -0.414
[4]; [13]
  GRinf: -0.679
[4]; [14]
  GRinf: 0.301
[4]; [15]
  GRinf: -0.233
[4]; [19]
  GRinf: -0.419
[4]; [16]
  GRinf: 0.165
[4]; [17]
  GRinf: 0.114
[4]; [18]
  GRinf: 0.11
[5]; [6]
  Einf: 0.885
[5]; [7]
  Einf: 0.98
[5]; [8]
  Einf: 0.911
[5]; [9]
  Einf: 0.958
[5]; [10]
  Einf: 0.659
[5]; [11]
  Einf: 0.886
[5]; [12]
  Einf: 0.941
[5]; [13]
  Einf: 0.999
[5]; [14]
  Einf: 0.87
[5]; [15]
  Einf: 0.984
[5]; [19]
  Einf: 0.977
[5]; [16]
  Einf: 0.883
[5]; [17]
  Einf: 0.821
[5]; [18]
  Einf: 0.909
